Experiments:
[1] = tested on: hyperreactivity of the bronchi induced by methacholine; test: Hyperreactivity of the bronchi, pletismometric method, mice; assay type: in vivo; details: i.p. 10 mg/kg, totally for 4 days, methacholine concentration of 25 mg/mL, measured over 24 hours after the provocative test
Procedure: (§1) Hyperreactivity of the Bronchi
(§2) The hyperreactivity of the bronchi was measured by pletismometric method (Buxco pletismometer), which is based on pressure difference and was performed in conscious and non-bound animals. The action of the compounds on the hyperreactivity of the bronchi induced by methacholine (Sigma) in aerosol form in different concentrations was expressed by the percentage of the increase of the enhanced pause value (PENH) above the base line, which was recorded without a cholinergic stimulant.
Compound 6 was used i.p. in mice in a dosis of 10 mg/kg within a period beginning two days prior to provocative test to the end of the test, totally for 4 days. The hyperreactivity of the bronchi was measured by pletismometric method over 24 hours after the provocative test.

[2] = tested on: hyperreactivity of the bronchi induced by methacholine; test: Hyperreactivity of the bronchi, pletismometric method, rats; assay type: in vivo; details: i.p. 10 mg/kg, totally for 4 days, methacholine concentration of 50 mg/mL, measured over 24 hours after the provocative test
Procedure: as §1, §2
Compound 36 was used i.p. in rats in a dosis of 10 mg/kg within a period beginning two days prior to the provocative test to the end of test, totally for 4 days. The hyperreactivity of the bronchi was measured by pletismometric method over 24 hours after the provocative test.

| SMILES | hyperreactivity of respiratory airways (PENH) in relation to the positive control group [1] | hyperreactivity of respiratory airways (PENH) in relation to the positive control group [2] |
| --- | --- | --- |
| Cc1cc(C)c2c(O)c(C3c4c(c5c(C)cc(C)cc5oc4=O)OC3O)c(=O)oc2c1 (centres unmarked) [Compound 6, 2-Hydroxy-3-(4-hydroxy-5,7-dimethyl-2-oxo-2H-chromene-3-yl)-7,9-dimethyl-2,3-dihydro-4H-furo[3,2-c]chromene-4-one] | statistically significantly (t-test, p<0.05) decreased |  |
| O=c1oc2cc(Cl)ccc2c(O)c1C1c2c(c3ccc(Cl)cc3oc2=O)OC1O (centres unmarked) [Compound 36, 2-Hydroxy-3-(4-hydroxy-7-chloro-2-oxo-2H-chromene-3-yl)-7-chloro-2,3-dihydro-4H-furo[3,2-c]chromene-4-one] |  | statistically significantly (t-test, p<0.01) decreased |
